We go through 18 molecules from patent publication US20230203026A1, “PESTICIDAL COMPOSITIONS AND METHODS” (CORTEVA AGRISCIENCE LLC, priority 2017, published 2023).

In experiment [1] the test system is beet armyworm (Spodoptera exigua, LAPHEG) ("BAW"). Briefly: Insecticidal test for beet armyworm, 128-well diet tray assay. Type of experiment: in vivo. Conditions: 168 h, 50 μg/cm^2 of test compound on artificial diet, second instar BAW larvae, 25° C., five to seven days, average of eight wells, read-out: BAW % Control (or Mortality) rating. The procedure: Insecticidal test for beet armyworm (Spodoptera exigua, LAPHEG) (“BAW”)
(§1) Bioassays on beet armyworm (BAW; Spodoptera exigua: Lepidoptera) are conducted using a 128-well diet tray assay. One to five second instar BAW larvae are placed in each well (3 mL) of the diet tray that had been previously filled with 1 mL of artificial diet to which 50 μg/cm^2 of the test compound (dissolved in 50 μL of 90:10 acetone-water mixture) had been applied (to each of eight wells) and then allowed to dry. Trays are covered with a clear self-adhesive cover, vented to allow gas exchange, and held at 25° C., 14:10 light-dark for five to seven days. Percent mortality is recorded for the larvae in each well; activity in the eight wells is then averaged.

Experiment [2] relates to Cabbage Looper (Trichloplusia ni, TRIPNI) ("CL"). Briefly: Insecticidal test for cabbage looper, 128-well diet tray assay. The note with it: Trichoplusia ni, 168 h; 50 μg/cm^2 of test compound on artificial diet; second instar CL larvae; 25° C.; five to seven days; average of eight wells; read-out: CL % Control (or Mortality) rating. Type of experiment: in vivo. The procedure:
Insecticidal Test for Cabbage Looper (Trichloplusia ni, TRIPNI) (“CL”)
as §1, with “cabbage looper (CL; Trichloplusia ni:” for “beet armyworm (BAW; Spodoptera exigua:”, “CL” for “BAW”

The mortality is the share of the test organisms that died. As to `CCCc1ccc(OC)cc1N1C(=O)CS/C1=N\C(=O)NOCc1ccc(-c2ncn(-c3ccc(OC(F)(F)F)cc3)n2)cc1` [A23, (Z)-1-(3-(5-Methoxy-2-propylphenyl)-4-oxothiazolidin-2-ylidene)-3-((4-(1-(4-(trifluoromethoxy)phenyl)-1H-1,2,4-triazol-3-yl)benzyl)oxy)urea], the mortality at 50 µg/cm2 in experiment [1] and in experiment [2] was 50 to 100% each time.

As for `Cc1ccc(C(F)(F)F)c(N2C(=O)CS/C2=N\C(=O)NOCc2ccc(-c3ncn(-c4ccc(OC(F)(F)F)cc4)n3)cc2)c1` [A24, (Z)-1-(3-(5-Methyl-2-(trifluoromethyl)phenyl)-4-oxothiazolidin-2-ylidene)-3-((4-(1-(4-(trifluoromethoxy)phenyl)-1H-1,2,4-triazol-3-yl)benzyl)oxy)urea], the mortality at 50 µg/cm2 in experiment [1] and in experiment [2] was 50 to 100% throughout.

Consider `COc1ccc(CC(F)(F)F)c(N2C(=O)CS/C2=N\C(=O)NOCc2ccc(-c3ncn(-c4ccc(OC(F)(F)F)cc4)n3)cc2)c1` [A25, (Z)-1-(3-(5-Methoxy-2-(2,2,2-trifluoroethyl)phenyl)-4-oxothiazolidin-2-ylidene)-3-((4-(1-(4-(trifluoromethoxy)phenyl)-1H-1,2,4-triazol-3-yl)benzyl)oxy)urea], for which the mortality at 50 µg/cm2 in experiment [1] and in experiment [2] was 50 to 100% in each case.

On to `COc1ccc(C(C)C)c(N2C(=O)CS/C2=N\C(=O)NOCc2ccc(-c3ncn(-c4ccc(OC(F)(F)F)cc4)n3)cc2)c1` [A26, (Z)-1-(3-(2-Isopropyl-5-methoxyphenyl)-4-oxothiazolidin-2-ylidene)-3-((4-(1-(4-(trifluoromethoxy)phenyl)-1H-1,2,4-triazol-3-yl)benzyl)oxy)urea], for which the mortality at 50 µg/cm2 in experiment [1] and in experiment [2] was 50 to 100% each time.

For `COCc1ccc(C)cc1N1C(=O)CS/C1=N\C(=O)NOCc1ccc(-c2ncn(-c3ccc(OC(F)(F)F)cc3)n2)cc1` [A27, (Z)-1-(3-(2-(Methoxymethyl)-5-methylphenyl)-4-oxothiazolidin-2-ylidene)-3-((4-(1-(4-(trifluoromethoxy)phenyl)-1H-1,2,4-triazol-3-yl)benzyl)oxy)urea], the mortality at 50 µg/cm2 in experiment [1] and in experiment [2] was 50 to 100% in each case.

Take `Cc1ccc(C(C)C)c(N2C(=O)CS/C2=N\C(=O)NOCc2ccc(-c3ncn(-c4ccc(OC(F)(F)F)cc4)n3)cc2)c1` [A28, (Z)-1-(3-(2-Isopropyl-5-methylphenyl)-4-oxothiazolidin-2-ylidene)-3-((4-(1-(4-(trifluoromethoxy)phenyl)-1H-1,2,4-triazol-3-yl)benzyl)oxy)urea]: the mortality at 50 µg/cm2 in experiment [1] and in experiment [2] was 50 to 100% each time.

Turning to `CC(C)c1ccccc1N1C(=O)CS/C1=N\C(=O)NOCc1ccc(-c2ncn(-c3ccc(OC(F)(F)F)cc3)n2)cc1` [A29, (Z)-1-(3-(2-Isopropylphenyl)-4-oxothiazolidin-2-ylidene)-3-((4-(1-(4-(trifluoromethoxy)phenyl)-1H-1,2,4-triazol-3-yl)benzyl)oxy)urea], the mortality at 50 µg/cm2 in experiment [1] and in experiment [2] was 50 to 100% in each case.

In the case of `Cc1ccc(OCC(F)(F)F)c(N2C(=O)CS/C2=N\C(=O)NOCc2ccc(-c3ncn(-c4ccc(OC(F)(F)F)cc4)n3)cc2)c1` [A30, (Z)-1-(3-(5-Methyl-2-(2,2,2-trifluoroethoxy)phenyl)-4-oxothiazolidin-2-ylidene)-3-((4-(1-(4-(trifluoromethoxy)phenyl)-1H-1,2,4-triazol-3-yl)benzyl)oxy)urea], the mortality at 50 µg/cm2 in experiment [1] and in experiment [2] was 50 to 100% each time.

For `O=C(/N=C1\SCC(=O)N1c1cc(Cl)ccc1OCC(F)(F)F)NOCc1ccc(-c2ncn(-c3ccc(OC(F)(F)F)cc3)n2)cc1` [A31, (Z)-1-(3-(5-Chloro-2-(2,2,2-trifluoroethoxy)phenyl)-4-oxothiazolidin-2-ylidene)-3-((4-(1-(4-(trifluoromethoxy)phenyl)-1H-1,2,4-triazol-3-yl)benzyl)oxy)urea], the mortality at 50 µg/cm2 in experiment [1] and in experiment [2] was 50 to 100% each time.

Regarding `CC(C)c1ccc(Cl)cc1N1C(=O)CS/C1=N\C(=O)NOCc1ccc(-c2ncn(-c3ccc(OC(F)(F)F)cc3)n2)cc1` [A32, (Z)-1-(3-(5-Chloro-2-isopropylphenyl)-4-oxothiazolidin-2-ylidene)-3-((4-(1-(4-(trifluoromethoxy)phenyl)-1H-1,2,4-triazol-3-yl)benzyl)oxy)urea], the mortality at 50 µg/cm2 in experiment [1] and in experiment [2] was 50 to 100% throughout.

Regarding `Cc1ccc(C(C)C)c(N2C(=O)CS/C2=N\C(=O)NOCc2ccc(-c3ncn(-c4ccc(OC(F)(F)C(F)(F)F)cc4)n3)cc2)c1` [A33, (Z)-1-(3-(2-Isopropyl-5-methylphenyl)-4-oxothiazolidin-2-ylidene)-3-((4-(1-(4-(perfluoroethoxy)phenyl)-1H-1,2,4-triazol-3-yl)benzyl)oxy)urea], the mortality at 50 µg/cm2 in experiment [1] and in experiment [2] was 50 to 100% throughout.

For `Cc1ccc(C(C)C)c(N2C(=O)CS/C2=N\C(=O)NOC(C)c2ccc(-c3ncn(-c4ccc(OC(F)(F)C(F)(F)F)cc4)n3)cc2)c1` (stereo not drawn) [A34, (Z)-1-(3-(2-Isopropyl-5-methylphenyl)-4-oxothiazolidin-2-ylidene)-3-(1-(4-(1-(4-(perfluoroethoxy)phenyl)-1H-1,2,4-triazol-3-yl)phenyl)ethoxy)urea], the mortality at 50 µg/cm2 in experiment [1] and in experiment [2] was 50 to 100% in each case.

As for `Cc1ccc(C(C)C)c(N2C(=O)CS/C2=N\C(=O)ON(Cc2ccc(-c3ncn(-c4ccc(OC(F)(F)F)cc4)n3)cc2)C(=O)OC(C)(C)C)c1` [A35, tert-Butyl (Z)-(((3-(2-isopropyl-5-methylphenyl)-4-oxothiazolidin-2-ylidene)carbamoyl)oxy)(4-(1-(4-(trifluoromethoxy)phenyl)-1H-1,2,4-triazol-3-yl)benzyl)carbamate], the mortality at 50 µg/cm2 in experiment [1] and in experiment [2] was 0% each time.

As to `CC(C)c1ccc(Cl)cc1N1C(=O)CS/C1=N\C(=O)NN(C)C(C)c1ccc(-c2ncn(-c3ccc(OC(F)(F)F)cc3)n2)cc1` (stereo not drawn) [A36, (Z)—N-(3-(5-Chloro-2-isopropylphenyl)-4-oxothiazolidin-2-ylidene)-2-methyl-2-(1-(4-(1-(4-(trifluoromethoxy)phenyl)-1H-1,2,4-triazol-3-yl)phenyl)ethyl)hydrazine-1-carboxamide], the mortality at 50 µg/cm2 in experiment [1] and in experiment [2] was 50 to 100% throughout.

In the case of `Cc1ccc(C(F)(F)F)c(N2C(=O)CS/C2=N\C(=O)NN(C)C(C)c2ccc(-c3ncn(-c4ccc(OC(F)(F)F)cc4)n3)cc2)c1` (stereo not drawn) [A37, (Z)-2-Methyl-N-(3-(5-methyl-2-(trifluoromethyl)phenyl)-4-oxothiazolidin-2-ylidene)-2-(1-(4-(1-(4-(trifluoromethoxy)phenyl)-1H-1,2,4-triazol-3-yl)phenyl)ethyl)hydrazine-1-carboxamide], the mortality at 50 µg/cm2 in experiment [1] and in experiment [2] was 50 to 100% throughout.

On to `Cc1ccc(OCC(F)(F)F)c(N2C(=O)CS/C2=N\C(=O)NN(C)C(C)c2ccc(-c3ncn(-c4ccc(OC(F)(F)F)cc4)n3)cc2)c1` (stereo not drawn) [A38, (Z)-2-Methyl-N-(3-(5-methyl-2-(2,2,2-trifluoroethoxy)phenyl)-4-oxothiazolidinylidene)-2-(1-(4-(1-(4-(trifluoromethoxy)phenyl)-1H-1,2,4-triazolyl)phenyl)ethyl)hydrazine-1-carboxamide], for which the mortality at 50 µg/cm2 in experiment [1] and in experiment [2] was 50 to 100% each time.

As to `Cc1ccc(C(C)C)c(N2C(=O)CS/C2=N\C(=O)ON(C)Cc2ccc(-c3ncn(-c4ccc(OC(F)(F)F)cc4)n3)cc2)c1` [A39, (Z)-3-(2-isopropyl-5-methylphenyl)-2-((((methyl(4-(1-(4-(trifluoromethoxy)phenyl)-1H-1,2,4-triazol-3-yl)benzyl)amino)oxy)carbonyl)imino)thiazolidin-4-one], the mortality at 50 µg/cm2 in experiment [1] and in experiment [2] was 50 to 100% throughout.

With `Cc1ccc(C(C)C)c(N2C(=O)CS/C2=N\C(=O)ONCc2ccc(-c3ncn(-c4ccc(OC(F)(F)F)cc4)n3)cc2)c1` [A40, (Z)-3-(2-isopropyl-5-methylphenyl)-2-(((((4-(1-(4-(trifluoromethoxy)phenyl)-1H-1,2,4-triazol-3-yl)benzyl)amino)oxy)carbonyl)imino)thiazolidin-4-one], the mortality at 50 µg/cm2 in experiment [1] and in experiment [2] was 50 to 100% each time.
